Assay results reported in patent publication US20220281930A1, “COMPOSITIONS AND METHODS FOR THE TREATMENT OF PATHOLOGICAL PAIN AND ITCH” (DUKE UNIVERSITY, priority 2019, published 2022).

What was measured:
KCC2 promoter = test: KCC2-LUC luciferase primary screen in primary cortical neurons; assay type: cell-based, mouse; conditions: Natural Compounds; rank score; 100 nM, 48 h
Method: Cytosine arabinoside ([…]) was added to cultures on the second day after seeding [2 d in vitro (DIV)] to inhibit the proliferation of non-neuronal cells. Cell suspension was plated at a density of 1×10^6 cells/ml onto 24-well tissue-culture dishes coated with poly-d-lysine.
LUC activity was then determined for each compound. Culture supernatant was removed and cells were lysed with 150 μl lysis buffer (Targeting Systems CA, USA cat. CLR1). LUC activity was measured with a RedLuciferase Assay kit (Targeting Systems cat. FLAR) according to the manufacturer's instructions. A Veritas microplate luminometer was used to measure luminescence; for each treatment triplicates of 40 μl cell lysates (from each 24-well tissue-culture dish) were used and 25 μl substrate was injected per well. […] Relative Light units (RLU) for each treatment was derived from Light Units (compound treatment)/vehicle treatment (0.5% DMSO).
The primary screen encompassed three levels of LUC measurements. […] Each compound was ranked based on composite scores from primary and secondary screening.

nerve injury pain = test: Nerve constriction injury (PSNL) pain model, mechanical withdrawal; assay type: in vivo, mouse
Method: For pain-related behavior, mechanical allodynia was assessed with von Frey filaments (Ugo Basile, Italy). The mice were placed on a 5×5-mm wire-mesh grid floor in individual compartments to avoid visual stimulation and allowed to adapt for 0.5 h prior to the von Frey test. The von Frey filament was then applied to the middle of the plantar surface of the hind paw with 5 g force. The withdrawal responses following the hind paw stimulation were measured at least three times, and the mechanical allodynia, which was defined as an increase in the number of withdrawal responses to the stimulation, was compared.
Thus, in vivo, KP functions as an analgesic when administered systemically in injury-related pain models.
Next, whether the analgesic effects of KP were mediated centrally at the spinal cord level was assessed.
Mechanical withdrawal was measured thresholds after nerve constriction injury (PSNL) (FIG. 12B and FIG. 12C). […] Thus, δ-cat(S276A) spinal transgenesis via AAV9 is sufficient to evoke analgesia after nerve constriction injury, to lesser degree also with δ-cat(WT). Importantly, δ-cat(S276A) spinal transgenesis was accompanied by increased expression of KCC2 in the SCDH. […] Moreover, our discovery points toward a genetically-encoded approach that can be developed for translation into clinical use as an alternative or complement to KP-related small molecules.

δ-cat S259 = test: Phosphoproteomics in rat primary cortical neurons, δ-cat; assay type: cell-based; conditions: 1 μM KP; after 1 h, sustained at 24 h
Method: Cultured rat primary cortical neurons were treated with either vehicle DMSO (0.1%) or 1 μM KP for 1 h/24 h. Cells were lysed in non-detergent-containing buffer (Tris.Cl pH8 50 mM, NaCl 150 mM, 0.5% Phosphatase Inhibitor (Pierce #88667) and Protease Inhibitor (Roche #11836153001)). 500 μL was removed and solid urea was added to a final concentration of 8M. Samples were sonicated for further solubilization. After clearing of insoluble material by centrifugation, protein concentration was measured by Bradford assay. 250 μg of total protein was removed from each sample and solubilization buffer was added to normalize all samples to 0.93 μg/μL protein. Samples were then spiked with bovine alpha-casein to 30 fmol/μg of total protein. Samples were reduced with 10 mM DTT at 32° C. for 45 min and then alkylated with 20 mM iodoacetamide at room temperature for 30 min. […]
TiO2 Enrichment. […] After cleanup using a C18 STAGE tip, and resuspension in 2% acetonitrile, 0.1% TFA, 10 mM citric acid samples were quantified.
Quantitative analysis of Phosphopeptide Enriched Samples. Quantitative LC-MS/MS was performed in singlicate (4 uL=33% of the total sample each injection) for phosphopeptide-enriched samples using a nanoAcquity UPLC system (Waters Corp) coupled to a Thermo QExactive Plus high resolution accurate mass tandem mass spectrometer (Thermo) via a nanoelectrospray ionization source. […]

SMILES: O=C1Cc2c([nH]c3ccc(Br)cc23)-c2ccccc2N1 [kenpaullone, 9-bromo-7,12-dihydro-indolo [3,2-d] [1]benzazepin-6(5H)-one]
- Luciferase Score (triplicates) (KCC2 promoter): 2
- analgesic effect on sensitized mechanical withdrawal (nerve injury pain; 10 mg/kg i.p. daily after nerve constriction injury): less accentuated
- analgesic effect on sensitized mechanical withdrawal (nerve injury pain; 30 mg/kg i.p. daily after nerve constriction injury): more pronounced
- behavioral sensitization of juvenile mice (nerve injury pain; KP 30 mg/kg, PSNL, juvenile mice): almost complete behavioral recovery
- mechanical allodynia (nerve injury pain; intrathecal 30 μg, nerve constriction injury): reduced mechanical allodynia
- protracted analgesia (nerve injury pain; systemic KP, d7-14 after nerve constriction): almost complete elimination of sensitization
- S259 phosphorylation of δ-cat (δ-cat S259): significant de-phosphorylation
